Assay results from patent publication US9617289B2, “RSV antiviral compounds” (JANSSEN R&D IRELAND, priority 2012, dated 2017).
Read-outs that look alike come from different tables or passages of the source.

Tests used:
rgRSV224 virus = test: Antiviral activity: inhibition of rgRSV224 (GFP-expressing RSV) replication in HeLa cells; format: cell-based, respiratory syncytial virus; details: human respiratory syncytial virus, HeLa, 72 h
Procedure, shortened: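 HeLa cells infected with GFP-expressing rgRSV224 at MOI 0.02 alongside 4-fold compound dilutions in duplicate (0.5% DMSO). Incubated 3 days at 37 °C; EC50 taken as 50% inhibition of GFP expression by laser microscopy. CC50 measured in parallel uninfected cells by ATP content after 3 days; SI = CC50/EC50.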

[1] = read-out: RSV-wt_pEC50, rgRSV224 (MOI=0.02) in HeLa cells, GFP expression three days post-virus exposure
[2] = read-out: pEC50, rgRSV224 (MOI=0.02) in HeLa cells, GFP expression three days post-virus exposure (converted)

CC(=O)NS(=O)(=O)N1CC2(C1)C(=O)N(Cc1cc3cc(Cl)ccc3n1CCCC#N)c1ccccc12 [Compound 117, N-[(1′-{[5-Chloro-1-(3-cyanopropyl)-1H-indol-2-yl]methyl}-2′-oxo-1′,2′-dihydro-1H-spiro[azetidine-3,3′-indol]-1-yl)sulfonyl]acetamide]
EC50 (rgRSV224 virus; [1]): 10 nM
melting point: 182.85 °C

CC(C)NC(=O)N[C@H]1C[C@@]2(C1)C(=O)N(Cc1nc3cc(Cl)ccc3n1CCCC#N)c1ccccc12 [Compound 144, 1-((1r,3r)-1′-((5-chloro-1-(3-cyanopropyl)-1H-benzo[d]imidazol-2-yl)methyl)-2′-oxospiro[cyclobutane-1,3′-indolin]-3-yl)-3-isopropylurea]
EC50 (rgRSV224 virus; [1]): 0.229 nM
melting point: 219.9 °C

CC(C)(O)C(=O)N1CCC2(CC1)C(=O)N(Cc1nc3cc(Cl)ccc3n1CCCCF)c1cnccc12 [Compound 169, 1′-{[5-Chloro-1-(4-fluorobutyl)-1H-benzimidazol-2-yl]methyl}-1-(2-hydroxy-2-methylpropanoyl)spiro[piperidine-4,3′-pyrrolo[2,3-c]pyridin]-2′(1′H)-one]
EC50 (rgRSV224 virus; [1]): 0.0275 nM
melting point: 222.72 °C

CC(=O)N1CC2(C1)C(=O)N(Cc1nc3cc(Cl)ccc3n1CCCS(C)(=O)=O)c1ccccc12 [Compound 30, 1-acetyl-1′-({5-chloro-1-[3-(methylsulfonyl)propyl]-1H-benzimidazol-2-yl}methyl)spiro[azetidine-3,3′-indol]-2′(1′H)-one]
EC50 (rgRSV224 virus; [2]): 0.251 nM
melting point: 221.24 °C

CC(C)(O)C(=O)N1CCC2(CC1)C(=O)N(Cc1nc3cc(Cl)ccc3n1CCCCO)c1cnccc12 [Compound 164, 1′-{[5-Chloro-1-(4-hydroxybutyl)-1H-benzimidazol-2-yl]methyl}-1-(2-hydroxy-2-methylpropanoyl)spiro[piperidine-4,3′-pyrrolo[2,3-c]pyridin]-2′(1′H)-one]
EC50 (rgRSV224 virus; [1]): 0.126 nM
melting point: 191.87 °C

CC(C)C(=O)N1CC2(C1)C(=O)N(Cc1nc3cc(Cl)ccc3n1CCCS(C)(=O)=O)c1ccccc12 [Compound 28, 1′-({5-chloro-1-[3-(methylsulfonyl)propyl]-1H-benzimidazol-2-yl}methyl)-1-(2-methylpropanoyl)-spiro[azetidine-3,3′-indol]-2′(1′H)-one]
EC50 (rgRSV224 virus; [2]): < 0.158 nM
melting point: 133.12 °C

N#CCCCn1c(CN2C(=O)C3(CN(S(=O)(=O)C4CC4)C3)c3ccccc32)nc2cc(Cl)ccc21 [Compound 180, 4-(5-Chloro-2-{[1-(cyclopropylsulfonyl)-2′-oxospiro[azetidine-3,3′-indol]-1′(2′H)-yl]methyl}-1H-benzimidazol-1-yl)butanenitrile]
EC50 (rgRSV224 virus; [1]): 0.117 nM
melting point: 190.42 °C

COc1ccc(S(=O)(=O)N2CCC3(CC2)C(=O)N(Cc2nc4cc(Cl)ccc4n2CCCS(C)(=O)=O)c2ccccc23)cc1 [Compound 36, 1-({5-chloro-1-[3-(methylsulfonyl)propyl]-1H-benzimidazol-2-yl}methyl)-1′-[(4-methoxyphenyl)-sulfonyl]spiro[indole-3,4′-piperidin]-2(1H)-one]
EC50 (rgRSV224 virus; [2]): 0.251 nM
melting point: 237.33 °C

CC(=O)N1CCC2(CC1)C(=O)N(Cc1cc3cc(Cl)ccc3n1CCCS(C)(=O)=O)c1cnccc12 [Compound 56, 1-acetyl-1′-({5-chloro-1-[3-(methylsulfonyl)propyl]-1H-indol-2-yl}methyl)spiro[piperidine-4,3′-pyrrolo[2,3-c]pyridin]-2′(1′H)-one]
EC50 (rgRSV224 virus; [2]): 0.316 nM
melting point: 258.32 °C

CS(=O)(=O)N1CC2(C1)C(=O)N(Cc1nc3cc(Cl)ccc3n1CCCC#N)c1ccccc12 [Compound 94, 4-(5-Chloro-2-{[1-(methylsulfonyl)-2′-oxospiro[azetidine-3,3′-indol]-1′(2′H)-yl]methyl}-1H-benzimidazol-1-yl)-butanenitrile]
EC50 (rgRSV224 virus; [1]): 0.129 nM
melting point: 214.11 °C

CS(=O)(=O)CCCn1c(CN2C(=O)C3(CN(S(=O)(=O)C4CC4)C3)c3ccccc32)nc2cc(Cl)ccc21 [Compound 29, 1′-({5-chloro-1-[3-(methylsulfonyl)propyl]-1H-benzimidazol-2-yl}methyl)-1-(cyclopropylsulfonyl)-spiro[azetidine-3,3′-indol]-2′(1′H)-one]
EC50 (rgRSV224 virus; [2]): < 0.158 nM
melting point: 191.15 °C

CS(=O)(=O)CCCn1c(CN2C(=O)C3(CCN(S(=O)(=O)c4cccs4)CC3)c3ccccc32)nc2cc(Cl)ccc21 [Compound 102]
EC50 (rgRSV224 virus; [1]): 1.45 nM
melting point: 233.06 °C

CS(=O)(=O)CCCn1c(CN2C(=O)C3(CC(O)C3)c3ccccc32)nc2cc(Cl)ccc21 [Compound 11, (3S)-1′-({5-chloro-1-[3-(methylsulfonyl)propyl]-1H-benzimidazol-2-yl}methyl)-3-hydroxyspiro[cyclobutane-1,3′-indol]-2′(1′H)-one]
EC50 (rgRSV224 virus; [2]): 0.398 nM
melting point: 232.91 °C

N#CCCCn1c(CN2C(=O)C3(CCN(C(=O)OCCO)CC3)c3ccncc32)cc2cc(Cl)ccc21 [Compound 147, 2-Hydroxyethyl 1′-{[5-chloro-1-(3-cyanopropyl)-1H-indol-2-yl]methyl}-2′-oxo-1′,2′-dihydro-1H-spiro[piperidine-4,3′-pyrrolo[2,3-c]pyridine]-1-carboxylate]
EC50 (rgRSV224 virus; [1]): 0.055 nM
melting point: 144.55 °C

N#CCCCn1c(CN2c3ccccc3[C@]3(C[C@@H](O)C3)C2=O)nc2cc(Cl)ccc21 [Compound 176, 4-(5-chloro-2-(((1r,3r)-3-hydroxy-2′-oxospiro[cyclobutane-1,3′-indolin]-1′-yl)methyl)-1H-benzo[d]imidazol-1-yl)butanenitrile]
EC50 (rgRSV224 virus; [1]): 0.363 nM
melting point: 217.25 °C

O=C1N(Cc2nc3cc(Cl)ccc3n2CCCC(F)(F)F)c2cc(F)ccc2C12CCOCC2 [Compound 71, 1-((5-chloro-1-(4,4,4-trifluorobutyl)-1H-benzo[d]imidazol-2-yl)methyl)-6-fluoro-2′,3′,5′,6′-tetrahydrospiro[indoline-3,4′-pyran]-2-one]
EC50 (rgRSV224 virus; [2]): 3.16 nM
melting point: 172.7 °C

N#CCCCn1c(CN2C(=O)C3(CCN(C(=O)OC4COC4)CC3)c3ccncc32)nc2cc(Cl)ccc21 [Compound 82, oxetan-3-yl 1′-((5-chloro-1-(3-cyanopropyl)-1H-benzo[d]-imidazol-2-yl)methyl)-2′-oxo-1′,2′-dihydrospiro[piperidine-4,3′-pyrrolo[2,3-c]pyridine]-1-carboxylate]
EC50 (rgRSV224 virus; [2]): < 0.158 nM
melting point: 203.41 °C

CS(=O)(=O)CCCn1c(CN2C(=O)C3(CN(CC(F)(F)F)C3)c3ccccc32)nc2cc(Cl)ccc21 [Compound 9, 1′-[[5-chloro-1-(3-methylsulfonylpropyl)benzimidazol-2-yl]methyl]-1-(2,2,2-trifluoroethyl)spiro[azetidine-3,3′-indoline]-2′-one]
EC50 (rgRSV224 virus; [2]): 0.398 nM
melting point: 200.68 °C

CC(C)NC(=O)N[C@H]1C[C@]2(C1)C(=O)N(Cc1nc3cc(Cl)ccc3n1CCCC#N)c1ccccc12 [Compound 143, 1-((1s,3s)-1′-((5-chloro-1-(3-cyanopropyl)-1H-benzo[d]imidazol-2-yl)methyl)-2′-oxospiro[cyclobutane-1,3′-indolin]-3-yl)-3-isopropylurea]
EC50 (rgRSV224 virus; [1]): 3.31 nM
melting point: 242.49 °C
